Patent US20260217701A1, “SELECTIVE BET INHIBITORS AND USES THEREOF” (Tay Therapeutics Limited, priority 2022, published 2026)
Like-named read-outs stand apart in the source and are kept apart here.

How the values were obtained:
CXCL10 = CXCL10 release from IFN-γ stimulated human PBMCs (ELISA); format: cell-based; settings: for IC50: Homo sapiens, PBMC
Protocol: To analyze the selectivity of Compound A for CXCL10, human PBMCs were similarly thawed, and compounds were similarly prepared (final compound concentration ranged from 30,000 nM to 0.005 nM, with a final DMSO concentration per well of 0.3%). PBMCs were seeded into 96-well plates at a concentration of 2×10^5 cells/well (volume of 190 μL) and treated with various concentrations of Compound A for 1 hour. The PBMCs were then stimulated with IFN-γ (15 ng/ml final concentration in a volume of 10 μL), and supernatants were collected 24 hours after the exposure to IFN-γ. Levels of CXCL10 in the supernatant were then analyzed by ELISA (Invitrogen).

[1] = tested on: idiopathic pulmonary fibrosis (bleomycin); test: Bleomycin IPF model: lung histology, Masson's Trichrome with Ashcroft scoring; format: in vivo, C57BI/6J mice; settings: for Ashcroft scores relative to IPF control group: Day 21
Protocol: Animals were acclimated for two weeks prior to study initiation, and were randomized into the experimental groups outlined in Table 32. Intratracheal (IT) administration of Bleo or PBS control was conducted at the start of the study (Day 0). […] Following administration of Bleo, animals (n=10/group) were included in the study if they met the following guidelines on Day 7: […] A resection of the right lung was weighed and homogenized to determine total hydroxyproline levels by colorimetric assay, and the remaining lung lysate was saved for future analyses. For the morphological assessments, the left lung was inflation-fixed at 25 cm of water pressure with 4% paraformaldehyde in PBS for 1 minute, processed, and then sectioned. Morphological analysis of the lung was conducted using H&E-stained slides. Additional histologic stains for morphological analyses included Masson's Trichrome staining with Ashcroft scoring to determine severity of fibrosis.

hydroxyproline = test: Bleomycin IPF model: hydroxyproline content in lung lysates; format: in vivo, C57BI/6J mice; parameters: Hydroxyproline Levels, Mean: unit not given here
Protocol: Male C57BI/6J mice, aged 12 weeks with an approximate weight of 25-30 g were obtained from Jackson Laboratories (Bar Harbor, ME). Animals were acclimated for two weeks prior to study initiation, and were randomized into the experimental groups outlined in Table 32.
Intratracheal (IT) administration of Bleo or PBS control was conducted at the start of the study (Day 0). […] Animals were weighed on Day 0, and indexed boluses of PBS control (Group 1) or Bleo (Groups 2-6) were delivered by IT administration.
Following administration of Bleo, animals (n=10/group) were included in the study if they met the following guidelines on Day 7: (1) a predictable 5% loss in body weight, and (2) the presence of fibrotic pulmonary lesions, detected by micro-CT imaging. 10 animals from Group 1 additionally proceeded as controls. Animals that continued in the study on Day 7 received an oral gavage (OG) administration of PBS, Compound A (1 mg/kg, 3 mg/kg, 10 mg/kg), or Pirfenidone (300 mg/kg), as outlined in Table 31 in 25 μL boluses every other day (QOD), starting on Day 7. Compound A was formulated in 5% (v/v) DMSO/15% (v/v) PEG 400/80% (v/v) E-TPGS in purified water.
Animals were euthanized on Day 21 following Micro-CT imaging, and the right lung was collected for biochemical analysis, and the left lung was inflation-fixed for morphological assessments. A resection of the right lung was weighed and homogenized to determine total hydroxyproline levels by colorimetric assay, and the remaining lung lysate was saved for future analyses.

[2] = Bleo + Compound A (1 mg/kg) OG QOD from D7
[3] = Bleo + Compound A (3 mg/kg) OG QOD from D7
[4] = Bleo + Compound A (10 mg/kg) OG QOD from D7

Cn1cc(-c2ccccc2)c(-c2cn(C)c(=O)c3[nH]c(-c4cnn(C(F)(F)F)c4)cc23)cc1=O [Compound A, 6-methyl-4-(1-methyl-2-oxo-5-phenyl-1,2-dihydropyridin-4-yl)-2-(1-(trifluoromethyl)-1H-pyrazol-4-yl)-1,6-dihydro-7H-pyrrolo[2,3-c]pyridin-7-one]
Percent Inhibition Relative to Control (CXCL10) (CXCL10; Compound Conc. 10 μM, Donors 1-6 two values each, Donors 7-10 three values each): 101.41%
IC50 (CXCL10; Average preliminary biomarker assay, read-out: CXCL10 IC50 Mean): 1000 nM
IC50 (CXCL10; Preliminary biomarker assay, Test Subject 1, read-out: CXCL 10 IC50): 1000 nM
IC50 (CXCL10; ELISA, read-out: Selectivity (IC50) CXCL10): 3640 nM
inhibition of CXCL10 (CXCL10; human PBMCs, IFN-γ, 24 hours): minimal inhibition
Ashcroft Scoring, Max [1, 2]: 7
Ashcroft Scoring, Mean [1, 2]: 5.25
Ashcroft Scoring, Min [1, 2]: 4
Ashcroft Scoring, Max [1, 3]: 5
Ashcroft Scoring, Mean [1, 3]: 4.416
Ashcroft Scoring, Min [1, 3]: 3
Ashcroft Scoring, Max [1, 4]: 5
Ashcroft Scoring, Mean [1, 4]: 3.708
Ashcroft Scoring, Min [1, 4]: 2
Ashcroft scores relative to IPF control group ([1]; 1, 3, 10 mg/kg): decreased Ashcroft scores
Ashcroft scores relative to IPF control group ([1]; Group 5, 10 mg/kg): significantly reduced Ashcroft scores
Fibrosis in lung tissue (Masson's Trichrome) compared to Group 2 (Bleo+Saline) ([1]; Group 5 (Compound A 10) and Group 6 (Pirfenidone)): qualitatively diminished
Hydroxyproline Levels, Mean (hydroxyproline; [2]): 0.05281
Hydroxyproline Levels, Mean (hydroxyproline; [3]): 0.05418
Hydroxyproline Levels, Mean (hydroxyproline; [4]): 0.04627
Hydroxyproline levels relative to Group 2 (hydroxyproline; Day 21, 1 mg/kg and 3 mg/kg): reduced levels of hydroxyproline
Hydroxyproline levels, lower than IPF control group (Bleo+Saline) (hydroxyproline; Day 21, 10 mg/kg): about 60.4%
